The test system of one data set is A549 cells. Put plainly: A549 Cell Proliferation Assay (MTT). In kind it is cell-based. Conditions: Homo sapiens.
The subject of the next data set is H1975 cells. Put plainly: H1975 Cell Proliferation Assay (MTT). Conditions: Homo sapiens. In kind it is cell-based.
The subject of data set [1] is DNA fragmentation in A549 cells. Put plainly: DNA Fragmentation Assay (Cell Death Detection ELISA). Conditions: for Emax at 1 µM / Emax at 10 µM: A549, read-out: % Increase Relative to Staurosporin. In kind it is cell-based.
The subject of the next data set is annexin V in A549 cells. The conditions noted are these: for % Total Apoptosis: cells in early- and late-stage apoptosis; for % Relative to Reference Cpd.: reference 4.0 μM camptothecin or 1.0 μM staurosporin. An excerpt:
Assays that measure apoptosis are utilized to determine whether or not compounds can induce programmed cell death in cancer cells. Annexin V is a protein that is used to detect apoptosis by binding to phosphatidylserine expressed on membranes of dead or dying cells. Fluorescently tagged with FITC, it can he used in conjunction with 7-aminoactinomycin D to determine the percentage of cells undergoing apoptosis via flow cytometry. Cells in early apoptosis will emit an FITC signal which will eventually be replaced by the far red 7-AAD signal that is associated with cell membrane permeability due to necrosis.
In brief, for the Annexin V Assay, compounds were added to cells plated in 6-well plates. Treated cells were incubated for up to 30 hours before addition of fluorescent cell marker probes that detect the presence of annexin V. The percentage of cells undergoing apoptosis and necrosis were determined by flow cytometry.
On day 2, working solutions of compounds (at 1000×) were prepared. To 2.0 ml media/well was added 2 μl 1000× compound diluted in 100% DMSO for final DMSO concentration of 0.1%. On day 3, plates were incubated for 30 hrs. […] Cells were collected by centrifugation at 300×g for 5 min.
Resuspended cells were stored at 4° C. in the dark, until flow cytometry analysis.
For flow cytometry analysis of the Annexin V Assay, sample acquisition was on the BD LSR II manufactured by BD Biosciences, San Jose, Calif. […] 10,000 events werer collected based on a stopping gate of forward scatter vs side scatter light. Acquisition was done through BD FACS DiVa software version 6.1.1 on high flow rate (60 μL/min). Calculations were as follows: Quadrant 3=lower left=live cells; Quadrant 4=lower right=early apoptosis; Quadrant 2=upper right=late apoptosis; Quadrant 1=upper left=dead cells. Percent (%)Total apoptosis was calculated as early (quadrant 4)+late (quadrant 2). Percent (%) ratio apoptosis was calculated as (experimental-No treatment/positive control)*100. All statistical analyses are done using GraphPad Prism or Microsoft Excel.

Data set [2] can be described thus: Pharmacokinetics, intravenous and oral dose. Also noted: species or system male CD-1 mice. Conditions: in vivo; for Cmax: plasma; for half-life: read-out: Half-life (t1/2; h) (converted). As for the experimental part: Plasma levels of the test compounds were determined by LC-MS/MS. Data was analyzed by non compartmental pharmacokinetic model by using WinNonlin.

The nature of data set [3]: Stability on incubation with mouse liver microsomes (MLM). In kind it is in vitro ADME. The conditions noted are these: percentage left after incubation with mouse liver microsomes for 30 minutes. The method, boiled down: (§1)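 Values are percent compound remaining after 30 min incubation with mouse or human liver microsomes.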
(In general: Microsomes from liver hold many membrane-bound enzymes, among them those of drug oxidation.)

Data set [4] can be described thus: Stability on incubation with human liver microsomes (HLM). In kind it is in vitro ADME. Conditions: percentage left after incubation with human liver microsomes for 30 minutes. The essentials:
as §1

Where [5] appears, read: A549, 72 h, read-out: IC50 Value (μM) A549 Cells.
The mark [6] stands for this setting: NCI-H1975, 72 h, read-out: IC50 Value (μM) H1975 Cells.
Setting [7] is: Homo sapiens, A549, 24 h, read-out: % Increase over Background.
Where [8] appears, read: mouse, iv, 1 mg/kg, male CD-1 mice.
[9] abbreviates: mouse, po, 5 mg/kg, male CD-1 mice.
Setting [10] is: mouse, po, 5 mg/kg, male CD-1 mice, read-out: Tmax.

Where two headings read alike, the source gives them in different places.

For the compound `Cc1cc(Cl)cnc1NC(c1ccc(Cl)cc1Cl)c1ccc2cccnc2c1O` (stereo not shown) [AD4-13130], the IC50 is 0.12 µM in the data set with A549 cells (setting [5]); ≤ 0.1 µM in the data set on A549 cells (A549, read-out: IC50, cell proliferation in A549 or H1975 cells); 0.088 µM in the data set on H1975 cells (setting [6]). The apoptotic activity result in data set [1] (Caspase, DNA Fragmentation, Annexin-V) is “increased apoptotic activity”. For the same compound, the activation at 1 µM in data set [1] (setting [7]) amounted to 630%. In addition, the activation at 10 µM in data set [1] (setting [7]) was 684%. Also, the Emax at 1 µM in data set [1] (Homo sapiens) was 62%. The Emax at 10 µM in data set [1] (Homo sapiens) was found to be 69%. Further, the “apoptosis, share of the cell population” value in the data set on annexin V in A549 cells (1 μM, A549 cells, FIG. 16B) is listed as “greater than 50%”. Also, the “% Total Apoptosis” value was 32% with annexin V in A549 cells (1 μM, A549 cells) and 38% with annexin V in A549 cells (10 μM, A549 cells). In addition, the “% Relative to Reference Cpd.” value in the data set with annexin V in A549 cells (1 μM) amounted to 178%; in the data set with annexin V in A549 cells (10 μM), 166%. For the same compound, the “late apoptosis, share of the cell population” value with annexin V in A549 cells (10 μM, A549 cells, FIG. 16B) is “up to 20%”. Moreover, the area under the curve (AUC) – broadly, concentration integrated over time – in data set [2] (male, CD-1, mouse, iv, 1 mg/kg) stood at 0.609 µg·h/mL; in data set [2] (male, CD-1, mouse, po, 5 mg/kg), 0.278 µg·h/mL. Further, the time to peak (Tmax) (as a rule, the time from dosing to the highest level) is 4.98 min in data set [2] (male, CD-1, mouse, iv, 1 mg/kg) and 60 min in data set [2] (setting [10]). In data set [2] (setting [8]), this compound had a Vd of 3.24 L/kg. Moreover, the clearance in data set [2] (setting [8]) was 1.64 L/h/kg. Besides, the Cmax (commonly the highest concentration seen after dosing) was 0.669 ± 0.045 µg/mL in data set [2] (setting [8]) and 0.131 ± 0.051 µg/mL in data set [2] (setting [9]). For the same compound, the half-life in data set [2] (setting [8]) is 112 min. The “MLM % Remaining@ 30 Min” value in data set [3] is listed as 69%. The “HLM % Remaining@ 30 Min” value in data set [4] amounted to 89%.

As for `Cc1c(Cl)cnc(NC(c2cccc(Cl)c2Cl)c2ccc3cccnc3c2O)c1F` (stereo not shown) [AD4-13192], in the data set with A549 cells (setting [5]), the IC50 was 0.15 µM. Also, the IC50 in the data set on H1975 cells (setting [6]) was found to be 0.19 µM. Besides, the activation at 10 µM in data set [1] (setting [7]) is 561%. Also, in data set [1] (Homo sapiens), the Emax at 1 µM was 11% and the Emax at 10 µM worked out at 55%. In addition, in the data set on annexin V in A549 cells (1 μM, A549 cells), the “% Total Apoptosis” value was found to be 29%. Further, the “% Total Apoptosis” value in the data set on annexin V in A549 cells (10 μM, A549 cells) is given as 30%. Moreover, in data set [2] (male, CD-1, mouse, iv, 1 mg/kg), the exposure (AUC) was determined as 1.39 µg·h/mL and the Tmax was 4.98 min. In data set [2] (male, CD-1, mouse, po, 5 mg/kg), the exposure (AUC) turned out to be 0.115 µg·h/mL. Moreover, in data set [2] (setting [8]), the Vd was determined as 0.56 L/kg, the clearance was 0.72 L/h/kg, the Cmax is 3.55 ± 0.571 µg/mL and the half-life is 88.2 min. The compound further gave a Cmax in data set [2] (setting [9]) of 0.059 ± 0.021 µg/mL. Besides, the time of peak concentration (Tmax) in data set [2] (setting [10]) stood at 30 min. For the same compound, in data set [3], the “MLM % Remaining@ 30 Min” value amounted to 63%. In addition, in data set [4], the “HLM % Remaining@ 30 Min” value is given as 100%.

As for `Oc1c(C(Nc2ccccn2)c2ccc(C(F)(F)F)cc2)ccc2cccnc12` (stereo not shown) [compound 10460], the IC50 was 0.304 µM in the data set on H1975 cells (NCI-H1975, H1975 cells, 72 hours post compound treatment, read-out: IC50 (best fit value from FIG. 10)); 0.304 µM with H1975 cells (NCI-H1975, H1975 cells, 72 hours post compound treatment, read-out: Log IC50 (best fit value from FIG. 10) (converted)); 0.3 µM with H1975 cells (NCI-H1975, MTT, 72 hours, read-out: IC50 Value (μM) H1975 Cells).

(Values after patent US9073858B2, “Methods of targeted drug development” (priority 2010, dated 2015).)
